Drawing on PubChem BioAssay (NCI), this text covers TGI for seven molecules.

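Growth conditions: 96-well plates. Treatment: test compound, 48 hours, 5 concentrations. Analysis: linear interpolation between bracketing concentrations; unreached endpoints set to highest concentration. TGI marks complete inhibition of growth.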

Some test systems named below: SR leukemia; SK-MEL-2 melanoma; NCI-H522 lung; SK-OV-3 ovarian; SW-620 colon; MOLT-4 leukemia; T-47D breast; SF-295 CNS; NCI-H226 lung; A549 NSCLC; UACC-257 melanoma; PC-3 prostate; MDA-MB-231 breast; HS 578T breast; UACC-62 melanoma; HL-60(TB) leukemia; RPMI-8226 leukemia; OVCAR-4 ovarian; RXF 393 renal; LOX IMVI melanoma.
What all share (experiment): NCI anticancer screen, dose series, 48 h

Regarding `CC(C)c1cccc(C(=O)NCCN(C)C)c1[N+](=O)[O-]`, the TGI in the assay with SR leukemia, in the assay on SK-MEL-2 melanoma, with NCI-H522 lung, in the assay with SK-OV-3 ovarian, in the assay with SW-620 colon and in the assay with MOLT-4 leukemia was > 100 µM throughout. For the same molecule, the TGI in the assay with T-47D breast, in the assay on SF-295 CNS, in the assay on NCI-H226 lung, in the assay on A549 NSCLC, in the assay on UACC-257 melanoma and in the assay with PC-3 prostate was > 100 µM each time. Further, the TGI in the assay with MDA-MB-231 breast, in the assay with HS 578T breast, in the assay with UACC-62 melanoma and in the assay on HL-60(TB) leukemia was > 100 µM in each case.
As for `O=C(O)C1(Cc2ccc3c(c2)CCC3)Cc2ccccc2C1=O` (configuration not stated), the TGI with RPMI-8226 leukemia was 92.2 µM; with SR leukemia, > 100 µM; with SK-MEL-2 melanoma, > 100 µM; in the assay with OVCAR-4 ovarian, > 100 µM; with SK-OV-3 ovarian it was > 100 µM; in the assay on SW-620 colon it was > 100 µM. In addition, the TGI in the assay with MOLT-4 leukemia, with T-47D breast, in the assay with SF-295 CNS, in the assay with RXF 393 renal, in the assay with NCI-H226 lung and with A549 NSCLC was > 100 µM in each case. The TGI in the assay with UACC-257 melanoma, in the assay with PC-3 prostate, with LOX IMVI melanoma, in the assay on MDA-MB-231 breast, in the assay with HS 578T breast and in the assay with UACC-62 melanoma was > 100 µM throughout. For the same molecule, the TGI with HL-60(TB) leukemia was > 100 µM.
With `CC1(C)CC(=O)c2c(nc(SSc3nc4c(c(-c5ccc(Br)cc5)c3C#N)C(=O)CC(C)(C)C4)c(C#N)c2-c2ccc(Br)cc2)C1`, the TGI in the assay with RPMI-8226 leukemia, in the assay on SR leukemia, with SK-MEL-2 melanoma, with NCI-H522 lung, in the assay on OVCAR-4 ovarian and in the assay with SK-OV-3 ovarian was > 10 µM in each case. Also, the TGI in the assay with SW-620 colon, with MOLT-4 leukemia, with T-47D breast, with SF-295 CNS, in the assay with RXF 393 renal and in the assay on NCI-H226 lung was > 10 µM throughout. Further, the TGI with A549 NSCLC, with UACC-257 melanoma, in the assay on PC-3 prostate, in the assay with LOX IMVI melanoma, with HS 578T breast and in the assay on HL-60(TB) leukemia was > 10 µM each time.
In the case of `O=c1oc2ccccc2c(O)c1C(c1ccc2c(c1)Cc1ccccc1-2)c1c(O)c2ccccc2oc1=O`, the TGI in the assay with RPMI-8226 leukemia was > 100 µM; in the assay with SK-MEL-2 melanoma, 74.2 µM; in the assay with NCI-H522 lung, 49.2 µM; with OVCAR-4 ovarian it was > 100 µM; in the assay with SK-OV-3 ovarian it was 90.8 µM; in the assay with SW-620 colon, 90.9 µM. In addition, the TGI in the assay on MOLT-4 leukemia is > 100 µM; in the assay on T-47D breast it was > 100 µM; with SF-295 CNS, 57.4 µM; in the assay on RXF 393 renal it was 35.5 µM; with NCI-H226 lung it was > 100 µM; in the assay on A549 NSCLC, 44.4 µM. In addition, the TGI in the assay with UACC-257 melanoma is > 100 µM; in the assay on PC-3 prostate, > 100 µM; in the assay with LOX IMVI melanoma, 66.7 µM; in the assay with MDA-MB-231 breast, 57.9 µM; in the assay on HS 578T breast, 86.3 µM; with UACC-62 melanoma, 49.8 µM. Further, the TGI in the assay on HL-60(TB) leukemia is 59.8 µM.
As for `O=[N+]([O-])C(=C(Nc1ccccc1)Nc1ccccc1)/C(Cl)=C(\Cl)Br`, the TGI with RPMI-8226 leukemia stood at 18.8 µM; in the assay with SR leukemia, 22.6 µM; in the assay with SK-MEL-2 melanoma it was 38.3 µM; with NCI-H522 lung, 8.72 µM; in the assay on OVCAR-4 ovarian it was 27.3 µM; with SW-620 colon it was 18.8 µM. The TGI in the assay on MOLT-4 leukemia stood at 13.4 µM; in the assay with T-47D breast it was 44.8 µM; with SF-295 CNS it was 29.5 µM; in the assay on NCI-H226 lung, 14.4 µM; in the assay on A549 NSCLC it was 51.1 µM; with UACC-257 melanoma, 27.8 µM. For the same molecule, the TGI was 30.7 µM in the assay on PC-3 prostate; 15.2 µM in the assay with LOX IMVI melanoma; 29 µM in the assay with MDA-MB-231 breast; > 100 µM in the assay on HS 578T breast; 4.41 µM in the assay on HL-60(TB) leukemia.
Turning to `CN(/N=C\c1ccc2ccccc2c1)C1=NCCN1`, the TGI with RPMI-8226 leukemia was 48 µM; in the assay with SR leukemia, 56.6 µM; in the assay on SK-MEL-2 melanoma, 30.9 µM; in the assay with NCI-H522 lung it was 32 µM; in the assay with OVCAR-4 ovarian, 73 µM; with SK-OV-3 ovarian, > 100 µM. Also, the TGI turned out to be 41.7 µM with SW-620 colon; 40.9 µM in the assay on MOLT-4 leukemia; 75.9 µM with T-47D breast; 30.4 µM with SF-295 CNS; 23.9 µM with RXF 393 renal; 37.8 µM in the assay with NCI-H226 lung. The TGI with A549 NSCLC is 36.3 µM; in the assay with UACC-257 melanoma it was 29.5 µM; with LOX IMVI melanoma it was 25.4 µM; with MDA-MB-231 breast, 36.1 µM; with HS 578T breast, 47.5 µM; in the assay with UACC-62 melanoma, 38.8 µM. Moreover, the TGI with HL-60(TB) leukemia was 33 µM.
`CC1(C)N=C(C(=O)c2ccccc2)N(O)C1(O)c1ccccc1` (configuration not stated): the TGI in the assay with RPMI-8226 leukemia, in the assay on SR leukemia, with SK-MEL-2 melanoma, in the assay on OVCAR-4 ovarian, with SK-OV-3 ovarian and with SW-620 colon was > 100 µM each time. Moreover, the TGI in the assay with MOLT-4 leukemia, with T-47D breast, with SF-295 CNS, in the assay on RXF 393 renal, in the assay with NCI-H226 lung and in the assay on A549 NSCLC was > 100 µM in each case. For the same molecule, the TGI in the assay on UACC-257 melanoma, in the assay with PC-3 prostate, in the assay with LOX IMVI melanoma, in the assay with MDA-MB-231 breast, in the assay with HS 578T breast and with UACC-62 melanoma was > 100 µM in each case. Besides, the TGI in the assay on HL-60(TB) leukemia was > 100 µM.
